In patent US11213499B1, “Use of 3,3′-diselenodipropionic acid (DSePA) as an anticancer agent” (Secretary, Department of Atomic Energy, priority 2020, dated 2022):

Test system: human A549 xenograft
Test: Anti-tumor effect in human A549 xenograft model
Type: in vivo
Conditions: for mortality: study period of 30 days
Procedure: These xenografts representative of NSCLC and CML respectively are considered to be highly aggressive and resistant to chemotherapy treatment. Therefore, any new chemotherapy agent against these cancers is very much sought. For the experiment, a total of 12 mice bearing A549 or K562 tumors of volume in the range of ˜50 mm^3 were divided into two groups (I & II), each group comprising of six mice. […] The group II was administered DSePA daily dissolved in sterile saline through oral route at a dosage of 1 mg/Kg body weight. The tumor volume and body weight of mice from each group were monitored daily for a total period of 30 days from the day of start. The animals were also checked for mortality if any throughout the study period. The experiment in A549 tumor was repeated three times (n=18 for each group) and the experiment in K562 tumor was repeated two times (n=12 for each group). […] This is the first study to show the anticancer activity of DSePA per se using xenograft model of human lung cancer (A549) and human leukemia (K562) cells in mice. Discovery of the application of the anticancer activity of DSePA is a novel invention in context of its probable usage in treatment for lung and leukemia cancer. More specifically the invention proposes a treatment regime and route of administering DSePA to inhibit the growth of human NSCLC (A549) and CML (K562).
For the optimization of the oral dosage of DSePA, a total of 24 mice bearing A549 or K562 xenograft of volume in the range of ˜50 mm^3 were divided into four groups (I-IV), each group comprising of six mice. […] The groups II, III and IV were administered DSePA dissolved in sterile saline through oral route at the dosage of 1, 2.5 and 5 mg/kg body weight respectively. The administration of DSePA was performed daily for 4 weeks. The tumor volume and body weight of mice from each group were monitored daily for a total period of 30 days from the day of start. The animals were also checked for mortality if any throughout the study period.
Animal maintenance—All animal studies were approved by the Institutional Animal Ethics Committee. Animals were housed under standard conditions (20±2° C., 65-70% humidity, 12 h/12 h day/night cycle, balanced laboratory diet and tap water ad libitum.
Xenograft tumor model-A549 and K562 tumor models were developed by Anticancer Drug Screening Facility of Advanced Centre for Treatment, Research and Education in Cancer (ACTREC), India. Briefly, Male/female NOD-SCID aged 6-7 weeks were housed in the laboratory animal facility of ACTREC. Donor mice carrying K562 or A549 xenografts were developed by injecting 2×10^6 cells in 100 μl of DMEM/RPMI, subcutaneously in their right flank. When tumors attained the size of approximately 2000 mm^3, the animals were sacrificed. Tumors were obtained and further cut into 2-3 mm fragments and implanted subcutaneously in the right flank of 6-7 weeks old recipient SCID mice. Tumors were allowed to grow to a size of approximately 50 mm^3 following which animals were divided into groups of six animals each for evaluation. A fresh DSePA solution was prepared by dissolution in sterile saline before each administration by intraperitoneal/oral route. The tumor efficacy of DSePA was determined by monitoring parameters like tumor volume and T/C. Tumors were assumed spherical and volume was calculated using following equations (1 & 2): […]
Where d1 (mm) and d2 (mm) are diameters measured in two perpendicular planes. T/C is defined as the ratio of the mean tumor volume of DSePA treated groups with the mean tumor volume of control group on the day of observation.

[1] = 1 mg/kg body weight daily oral, day 1
[2] = 1 mg/kg body weight daily oral, day 5
[3] = 1 mg/kg body weight daily oral, day 9
[4] = 1 mg/kg body weight daily oral, day 12
[5] = 1 mg/kg body weight daily oral, day 15
[6] = 1 mg/kg body weight daily oral, day 18
[7] = 1 mg/kg body weight daily oral, day 21
[8] = 1 mg/kg body weight daily oral, day 24
[9] = 1 mg/kg body weight daily oral, day 27
[10] = 1 mg/kg body weight daily oral, day 31
[11] = 2.5 mg/kg body weight daily oral, day 1
[12] = 2.5 mg/kg body weight daily oral, day 5
[13] = 2.5 mg/kg body weight daily oral, day 9
[14] = 2.5 mg/kg body weight daily oral, day 12
[15] = 2.5 mg/kg body weight daily oral, day 15
[16] = 2.5 mg/kg body weight daily oral, day 18
[17] = 2.5 mg/kg body weight daily oral, day 21
[18] = 2.5 mg/kg body weight daily oral, day 24
[19] = 2.5 mg/kg body weight daily oral, day 27
[20] = 2.5 mg/kg body weight daily oral, day 31
[21] = 5 mg/kg body weight daily oral, day 1
[22] = 5 mg/kg body weight daily oral, day 5
[23] = 5 mg/kg body weight daily oral, day 9
[24] = 5 mg/kg body weight daily oral, day 12
[25] = 5 mg/kg body weight daily oral, day 15
[26] = 5 mg/kg body weight daily oral, day 18
[27] = 5 mg/kg body weight daily oral, day 21
[28] = 5 mg/kg body weight daily oral, day 24
[29] = 5 mg/kg body weight daily oral, day 27
[30] = 5 mg/kg body weight daily oral, day 31

O=C(O)CC[Se][Se]CCC(=O)O [DSePA, 3,3′-diselenodipropionic acid]
tumor growth inhibition vs control (1 mg/Kg body weight daily oral, three independent experiments): significantly (P<0.05) inhibited the growth
overall reduction (relative tumor volume vs tumor control) (1 mg/Kg orally daily, end of study period (30 days), n=18, P=0.0009): ~2 folds
mortality (1 mg/Kg orally daily, three independent studies): did not show any mortality
% S (Survival) [1]: 100%
RTV (Relative Tumor Volume) [1]: 1
T/C (T (test)/C (control)) [1]: 1
% S (Survival) [2]: 100%
RTV (Relative Tumor Volume) [2]: 1.23
T/C (T (test)/C (control)) [2]: 0.98
% S (Survival) [3]: 100%
RTV (Relative Tumor Volume) [3]: 1.64
T/C (T (test)/C (control)) [3]: 0.98
% S (Survival) [4]: 100%
RTV (Relative Tumor Volume) [4]: 1.83
T/C (T (test)/C (control)) [4]: 0.87
% S (Survival) [5]: 100%
RTV (Relative Tumor Volume) [5]: 1.80
T/C (T (test)/C (control)) [5]: 0.76
% S (Survival) [6]: 100%
RTV (Relative Tumor Volume) [6]: 2.36
T/C (T (test)/C (control)) [6]: 0.71
% S (Survival) [7]: 100%
RTV (Relative Tumor Volume) [7]: 2.47
T/C (T (test)/C (control)) [7]: 0.68
% S (Survival) [8]: 100%
RTV (Relative Tumor Volume) [8]: 2.66
T/C (T (test)/C (control)) [8]: 0.52
% S (Survival) [9]: 100%
RTV (Relative Tumor Volume) [9]: 2.94
T/C (T (test)/C (control)) [9]: 0.47
% S (Survival) [10]: 100%
RTV (Relative Tumor Volume) [10]: 3.70
T/C (T (test)/C (control)) [10]: 0.45
% S (Survival) [11]: 100%
RTV (Relative Tumor Volume) [11]: 1
T/C (T (test)/C (control)) [11]: 1
% S (Survival) [12]: 100%
RTV (Relative Tumor Volume) [12]: 0.99
T/C (T (test)/C (control)) [12]: 0.79
% S (Survival) [13]: 100%
RTV (Relative Tumor Volume) [13]: 1.10
T/C (T (test)/C (control)) [13]: 0.66
% S (Survival) [14]: 100%
RTV (Relative Tumor Volume) [14]: 1.25
T/C (T (test)/C (control)) [14]: 0.59
% S (Survival) [15]: 100%
RTV (Relative Tumor Volume) [15]: 1.03
T/C (T (test)/C (control)) [15]: 0.43
% S (Survival) [16]: 100%
RTV (Relative Tumor Volume) [16]: 1.31
T/C (T (test)/C (control)) [16]: 0.39
% S (Survival) [17]: 100%
RTV (Relative Tumor Volume) [17]: 1.40
T/C (T (test)/C (control)) [17]: 0.38
% S (Survival) [18]: 100%
RTV (Relative Tumor Volume) [18]: 1.81
T/C (T (test)/C (control)) [18]: 0.35
% S (Survival) [19]: 100%
RTV (Relative Tumor Volume) [19]: 1.96
T/C (T (test)/C (control)) [19]: 0.31
% S (Survival) [20]: 100%
RTV (Relative Tumor Volume) [20]: 2.84
T/C (T (test)/C (control)) [20]: 0.35
% S (Survival) [21]: 100%
RTV (Relative Tumor Volume) [21]: 1
T/C (T (test)/C (control)) [21]: 1
% S (Survival) [22]: 100%
RTV (Relative Tumor Volume) [22]: 0.94
T/C (T (test)/C (control)) [22]: 0.75
% S (Survival) [23]: 100%
RTV (Relative Tumor Volume) [23]: 1.29
T/C (T (test)/C (control)) [23]: 0.76
% S (Survival) [24]: 100%
RTV (Relative Tumor Volume) [24]: 1.30
T/C (T (test)/C (control)) [24]: 0.62
% S (Survival) [25]: 100%
RTV (Relative Tumor Volume) [25]: 1.19
T/C (T (test)/C (control)) [25]: 0.50
% S (Survival) [26]: 100%
RTV (Relative Tumor Volume) [26]: 2.22
T/C (T (test)/C (control)) [26]: 0.67
% S (Survival) [27]: 100%
RTV (Relative Tumor Volume) [27]: 2.34
T/C (T (test)/C (control)) [27]: 0.65
% S (Survival) [28]: 100%
RTV (Relative Tumor Volume) [28]: 2.94
T/C (T (test)/C (control)) [28]: 0.57
% S (Survival) [29]: 100%
RTV (Relative Tumor Volume) [29]: 2.92
T/C (T (test)/C (control)) [29]: 0.47
% S (Survival) [30]: 100%
RTV (Relative Tumor Volume) [30]: 5.30
T/C (T (test)/C (control)) [30]: 0.65
tumor growth inhibition vs control (dosage optimization, 1 mg/kg body weight daily oral for 4 weeks): significantly (P<0.05) inhibited the growth of A549 tumor from day 21 onwards
tumor growth inhibition vs control (dosage optimization, 2.5 mg/kg body weight daily oral for 4 weeks): significantly (P<0.05) inhibited the growth of A549 tumor from day 21 onwards
tumor growth inhibition vs control (dosage optimization, 5 mg/kg body weight daily oral, experimental end point (31st day)): did not show any significant suppression of A549 tumor
mortality (dosage optimization, 1, 2.5 and 5 mg/kg daily oral): did not show any mortality
T/C achieved (lung model, 1 mg/kg body weight daily oral): ≤ 0.42
minimum dosage to achieve optimum efficacy (oral daily): 1 mg/kg body weight
